Assay results reported in patent publication US12281086B2, “2-aminothiazoles derivatives and method of preparation thereof using super-paramagnetic iron oxide nanoparticles (SPIONs)” (Imam Abdulrahman Bin Faisal University, priority 2023, dated 2025).

Columns and labels:
Type in all cases: cell-based
B. subtilis = experiment: Anti-microbial activity, inhibition zone, B. subtilis; as to Inhibition Zone(mm ± SD) Bacillus: test concentration or dose not given here; details: for Inhibition Zone(mm ± SD) Bacillus: Bacillus (B. subtilis)
Method: (§1) All synthesized compounds were tested for their antimicrobial activities against five types of microorganisms, including gram-negative and positive bacteria and fungi. The gram-negative bacteria include E. coli and P. aeruginosa, while B. subtilis and S. aureus represented the gram-positive bacteria. C. albicans was the fungus used in the screening. […] In addition, the antibacterial activity of the Schiff bases seems to be insensitive to the position and the nature of the substituents. […] For the gram-positive bacteria, the antibacterial activity was more significant in Schiff base derivatives when compared to azo derivatives.

C. albicans = experiment: Anti-microbial (antifungal) activity, inhibition zone, C. albicans; also: test concentration or dose not given here
Method: as §1

E. coli = experiment: Anti-microbial activity, inhibition zone, E. coli; as to Inhibition Zone(mm ± SD) E. coli: test concentration or dose not given here
Method: as §1

P. aeruginosa = experiment: Anti-microbial activity, inhibition zone, P. aeruginosa; as to Inhibition Zone(mm ± SD) P. aeruginosa: test concentration or dose not given here
Method: as §1

S. aureus = experiment: Anti-microbial activity, inhibition zone, S. aureus; as to Inhibition Zone(mm ± SD) S. aureus: test concentration or dose not given here
Method: as §1

## Nc1nccs1 [Compound 1, 2-aminothiazole]
B. subtilis
  Inhibition Zone(mm ± SD) Bacillus: Nil
C. albicans
  Inhibition Zone(mm ± SD) Candida: Nil
E. coli
  Inhibition Zone(mm ± SD) E. coli: 9.8 ± 0.2 mm
P. aeruginosa
  Inhibition Zone(mm ± SD) P. aeruginosa: Nil
S. aureus
  Inhibition Zone(mm ± SD) S. aureus: Nil

## ClN=Nc1nccs1 [Compound 2, 2-(Chlorodiazenyl)Thiazole]
B. subtilis
  Inhibition Zone(mm ± SD) Bacillus: Nil
C. albicans
  Inhibition Zone(mm ± SD) Candida: Nil
E. coli
  Inhibition Zone(mm ± SD) E. coli: 10.15 ± 0.4 mm
P. aeruginosa
  Inhibition Zone(mm ± SD) P. aeruginosa: Nil
S. aureus
  Inhibition Zone(mm ± SD) S. aureus: Nil

## CC1=NNC(=O)C1N=Nc1nccs1 (stereo not drawn) [Compound 6, 3-methyl-4-(thiazol-2-yldiazenyl)-1H-pyrazol-5(4H)-one]
B. subtilis
  Inhibition Zone(mm ± SD) Bacillus: Nil
C. albicans
  Inhibition Zone(mm ± SD) Candida: Nil
E. coli
  antibacterial activity against E. coli (in words): most potent antibacterial activity
  Inhibition Zone(mm ± SD) E. coli: 22 ± 0.8 mm
P. aeruginosa
  growth inhibition against P. aeruginosa (in words): showed growth inhibition
  Inhibition Zone(mm ± SD) P. aeruginosa: 16 mm
S. aureus
  Inhibition Zone(mm ± SD) S. aureus: Nil

## NC1=NNC(=O)C1N=Nc1nccs1 (stereo not drawn) [Compound 7, 3-amino-4-(thiazol-2-yldiazenyl)-1H-pyrazol-5(4H)-one]
B. subtilis
  activity against B. subtilis (in words): showed activity
  Inhibition Zone(mm ± SD) Bacillus: 8.6 ± 0.4 mm
C. albicans
  Inhibition Zone(mm ± SD) Candida: 12 ± 0 mm
E. coli
  Inhibition Zone(mm ± SD) E. coli: 16 ± 1.4 mm
P. aeruginosa
  Inhibition Zone(mm ± SD) P. aeruginosa: Nil
S. aureus
  activity against S. aureus (in words): showed activity
  Inhibition Zone(mm ± SD) S. aureus: 12.3 ± 0.9 mm

## CC1=NN=C(C)C1N=Nc1nccs1 [Compound 8, (3,5-Dimethyl-4H-pyrazol-4-yl)-thiazol-2-yl-diazene]
B. subtilis
  Inhibition Zone(mm ± SD) Bacillus: 10.6 ± 0.4 mm
C. albicans
  Inhibition Zone(mm ± SD) Candida: Nil
E. coli
  Inhibition Zone(mm ± SD) E. coli: 20.6 ± 0.9 mm
P. aeruginosa
  Inhibition Zone(mm ± SD) P. aeruginosa: Nil
S. aureus
  Inhibition Zone(mm ± SD) S. aureus: Nil

## C(=Nc1nccs1)c1ccccc1 [Compound 9, N-(benzylidene)thiazol-2-amine]
B. subtilis
  Inhibition Zone(mm ± SD) Bacillus: Nil
C. albicans
  Inhibition Zone(mm ± SD) Candida: Nil
E. coli
  antibacterial activity against E. coli (in words): least potent
  Inhibition Zone(mm ± SD) E. coli: 8.8 ± 0.4 mm
P. aeruginosa
  growth inhibition against P. aeruginosa (in words): showed growth inhibition
  Inhibition Zone(mm ± SD) P. aeruginosa: 8 ± 0 mm
S. aureus
  Inhibition Zone(mm ± SD) S. aureus: Nil

## Clc1ccc(C=Nc2nccs2)cc1 [Compound 10, N-(4-chlorobenzylidene)thiazol-2-amine]
B. subtilis
  Inhibition Zone(mm ± SD) Bacillus: Nil
C. albicans
  Inhibition Zone(mm ± SD) Candida: Nil
E. coli
  Inhibition Zone(mm ± SD) E. coli: 14.3 ± 0.4 mm
P. aeruginosa
  Inhibition Zone(mm ± SD) P. aeruginosa: Nil
S. aureus
  Inhibition Zone(mm ± SD) S. aureus: Nil

## O=[N+]([O-])c1ccccc1C=Nc1nccs1 [Compound 11, N-(2-nitrobenzylidene)thiazol-2-amine]
B. subtilis
  activity against B. subtilis (in words): exhibited activities
  Inhibition Zone(mm ± SD) Bacillus: 8.6 ± 0.9 mm
C. albicans
  Inhibition Zone(mm ± SD) Candida: Nil
E. coli
  Inhibition Zone(mm ± SD) E. coli: 12.3 ± 0.9 mm
P. aeruginosa
  growth inhibition against P. aeruginosa (in words): showed growth inhibition
  Inhibition Zone(mm ± SD) P. aeruginosa: 11.8 ± 0.6 mm
S. aureus
  activity against S. aureus (in words): exhibited activities
  Inhibition Zone(mm ± SD) S. aureus: 10.6 ± 0.4 mm

## Oc1ccc(C=Nc2nccs2)cc1 [Compound 12, 4-((thiazol-2-ylimino)methyl)phenol]
B. subtilis
  Inhibition Zone(mm ± SD) Bacillus: Nil
C. albicans
  Inhibition Zone(mm ± SD) Candida: Nil
E. coli
  Inhibition Zone(mm ± SD) E. coli: 13.3 ± 1.2 mm
P. aeruginosa
  Inhibition Zone(mm ± SD) P. aeruginosa: Nil
S. aureus
  Inhibition Zone(mm ± SD) S. aureus: 10.3 ± 0.7 mm

## Oc1ccccc1C=Nc1nccs1 [Compound 13, 2-((thiazol-2-ylimino)methyl)phenol]
B. subtilis
  activity against B. subtilis (in words): exhibited activities
  Inhibition Zone(mm ± SD) Bacillus: 11.3 ± 0.4 mm
C. albicans
  Inhibition Zone(mm ± SD) Candida: Nil
E. coli
  Inhibition Zone(mm ± SD) E. coli: 14.95 ± 0.5 mm
P. aeruginosa
  growth inhibition against P. aeruginosa (in words): showed growth inhibition
  Inhibition Zone(mm ± SD) P. aeruginosa: 9 ± 0.8 mm
S. aureus
  activity against S. aureus (in words): exhibited activities
  Inhibition Zone(mm ± SD) S. aureus: 9.6 ± 0.3 mm

## COc1ccc(C=Nc2nccs2)cc1 [Compound 14, N-(4-methoxybenzylidene)thiazol-2-amine]
B. subtilis
  Inhibition Zone(mm ± SD) Bacillus: 10.3 ± 0.4 mm
C. albicans
  Inhibition Zone(mm ± SD) Candida: Nil
E. coli
  Inhibition Zone(mm ± SD) E. coli: 12.3 ± 0.4 mm
P. aeruginosa
  Inhibition Zone(mm ± SD) P. aeruginosa: Nil
S. aureus
  Inhibition Zone(mm ± SD) S. aureus: Nil

## COc1ccccc1C=Nc1nccs1 [Compound 15, N-(2-methoxybenzylidene)thiazol-2-amine]
B. subtilis
  Inhibition Zone(mm ± SD) Bacillus: Nil
C. albicans
  Inhibition Zone(mm ± SD) Candida: Nil
E. coli
  Inhibition Zone(mm ± SD) E. coli: 12.6 ± 0.5 mm
P. aeruginosa
  Inhibition Zone(mm ± SD) P. aeruginosa: Nil
S. aureus
  Inhibition Zone(mm ± SD) S. aureus: Nil

## COc1ccc(C=Nc2nccs2)c(OC)c1 [Compound 16, N-(2,4-dimethoxy-benzylidene)-thiazol-2-yl-amine]
B. subtilis
  activity against B. subtilis (in words): exhibited activities
  Inhibition Zone(mm ± SD) Bacillus: 12.3 ± 0.4 mm
C. albicans
  Inhibition Zone(mm ± SD) Candida: Nil
E. coli
  Inhibition Zone(mm ± SD) E. coli: 13 ± 0.4 mm
P. aeruginosa
  Inhibition Zone(mm ± SD) P. aeruginosa: Nil
S. aureus
  activity against S. aureus (in words): exhibited activities
  Inhibition Zone(mm ± SD) S. aureus: 13 ± 0.1 mm

## COc1cccc(C=Nc2nccs2)c1OC [Compound 17, N-(2,3-dimethoxybenzylidene)thiazol-2-amine]
B. subtilis
  Inhibition Zone(mm ± SD) Bacillus: Nil
C. albicans
  Inhibition Zone(mm ± SD) Candida: Nil
E. coli
  Inhibition Zone(mm ± SD) E. coli: 10.95 ± 0.3 mm
P. aeruginosa
  Inhibition Zone(mm ± SD) P. aeruginosa: Nil
S. aureus
  Inhibition Zone(mm ± SD) S. aureus: 9.3 ± 0.4 mm

## Cc1[nH]c2ccccc2c1C=Nc1nccs1 [Compound 18, N-((2-methyl-1H-indol-3-yl)methylene)thiazol-2-amine]
B. subtilis
  Inhibition Zone(mm ± SD) Bacillus: 10 ± 0.2 mm
C. albicans
  Inhibition Zone(mm ± SD) Candida: Nil
E. coli
  Inhibition Zone(mm ± SD) E. coli: 16.2 ± 0.9 mm
P. aeruginosa
  growth inhibition against P. aeruginosa (in words): showed growth inhibition
  Inhibition Zone(mm ± SD) P. aeruginosa: 14.6 ± 0.7 mm
S. aureus
  Inhibition Zone(mm ± SD) S. aureus: 11.3 ± 0.4 mm
